The subject of this experiment is CD8F1 mice, subcutaneous mammary adenocarcinoma, T/C%. Put plainly: NCI In Vivo Anticancer Drug Screen. Data for tumor model Mammary Adenocarcinoma CD8F1 (subcutaneous) in CD8F1. The note with it: higher = larger tumour. The method, boiled down: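 Transplantable tumors were established in mice, animals were dosed with compound or vehicle, and survival or tumor size was then measured in both groups. The treated result was divided by the control result.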

Where [1] appears, read: endpoint: median tumor weight change, dose: 250.0 mg/kg/injection, schedule: Q01DX001 (ip), vehicle: saline with Tween-80.
Setting [2] is: endpoint: median tumor weight change, dose: 500.0 mg/kg/injection, schedule: Q01DX001 (ip), vehicle: saline with Tween-80.
The mark [3] stands for this setting: endpoint: median tumor weight change, dose: 1000.0 mg/kg/injection, schedule: Q01DX001 (ip), vehicle: saline with Tween-80.
The mark [4] stands for this setting: endpoint: median tumor weight (est.), dose: 25.0 mg/kg/injection, schedule: Q07DX005 (ip), vehicle: Klucel (hydroxypropylcellulose) (HPC).
Where [5] appears, read: endpoint: median tumor weight (est.), dose: 50.0 mg/kg/injection, schedule: Q07DX005 (ip), vehicle: Klucel (hydroxypropylcellulose) (HPC).
The mark [6] stands for this setting: endpoint: median tumor weight (est.), dose: 100.0 mg/kg/injection, schedule: Q07DX005 (ip), vehicle: Klucel (hydroxypropylcellulose) (HPC).
[7] abbreviates: endpoint: median tumor weight (est.), dose: 200.0 mg/kg/injection, schedule: Q07DX005 (ip), vehicle: Klucel (hydroxypropylcellulose) (HPC).
[8] abbreviates: endpoint: median tumor weight (est.), dose: 400.0 mg/kg/injection, schedule: Q07DX005 (ip), vehicle: Klucel (hydroxypropylcellulose) (HPC).
The mark [9] stands for this setting: endpoint: median tumor weight (est.), dose: 12.5 mg/kg/injection, schedule: Q07DX005 (ip), vehicle: Klucel (hydroxypropylcellulose) (HPC).
The mark [10] stands for this setting: endpoint: median tumor weight change, dose: 125.0 mg/kg/injection, schedule: Q01DX001 (ip), vehicle: saline.
[11] abbreviates: endpoint: median tumor weight (est.), dose: 12.5 mg/kg/injection, schedule: Q07DX005 (ip), vehicle: saline with Tween-80.
Setting [12] is: endpoint: median tumor weight (est.), dose: 25.0 mg/kg/injection, schedule: Q07DX005 (ip), vehicle: saline with Tween-80.
Where [13] appears, read: endpoint: median tumor weight (est.), dose: 50.0 mg/kg/injection, schedule: Q07DX005 (ip), vehicle: saline with Tween-80.
Where [14] appears, read: endpoint: median tumor weight (est.), dose: 100.0 mg/kg/injection, schedule: Q07DX005 (ip), vehicle: saline with Tween-80.
Where [15] appears, read: endpoint: median tumor weight (est.), dose: 1.0 mg/kg/injection, schedule: Q07DX005 (ip), vehicle: saline.

16 compounds from PubChem BioAssay AID220 (DTP/NCI, 2004) can be followed below.

Each structure is given as a SMILES string. Values joined by “and” are separate entries in the source; they are usually repeats but may differ in a detail not shown here. Equal entries are not always repeated. Inconclusive results are not listed.

On to `O=C(Nc1ccccc1)c1c(O)[nH]c(=S)[nH]c1=O`, for which the T/C by setting is: (endpoint: median tumor weight change, dose: 56.0 mg/kg/injection, schedule: Q01DX001 (ip), vehicle: saline with Tween-80) 61 % of control; (endpoint: median tumor weight change, dose: 112.0 mg/kg/injection, schedule: Q01DX001 (ip), vehicle: saline with Tween-80) 80 % of control.

In the case of `N=c1c(C(=O)OCc2ccccc2)ncc(CCl)n1O`, the T/C reads like this: under setting [1], 78 % of control and 94 % of control; under setting [2], 80 % of control and 82 % of control; under setting [3], 65 % of control and 81 % of control.

On to `CC(C)(Oc1ccc(-c2cccc3ccccc23)cc1)C(=O)O`, for which the T/C under setting [4] is 48 % of control; the T/C under setting [5] was 52 % of control; the T/C under setting [6] was 57 % of control; the T/C under setting [7] is 79 % of control; the T/C under setting [8] was 39 % of control.

On to `CCCCc1ccc(-n2c(C)c(COC(=O)NC)c(COC(=O)NC)c2C)cc1`, for which the T/C reads like this: (endpoint: median tumor weight (est.), dose: 6.25 mg/kg/injection, schedule: Q07DX005 (ip), vehicle: Klucel (hydroxypropylcellulose) (HPC)) 118 % of control; under setting [9], 63 % of control; under setting [4], 111 % of control; under setting [5], 56 % of control; under setting [6], 40 % of control.

Turning to `Cc1ccccc1-[n+]1noc(N)n1`, the T/C runs as follows: (endpoint: median tumor weight change, dose: 31.25 mg/kg/injection, schedule: Q01DX001 (ip), vehicle: water) 72 % of control; (endpoint: median tumor weight change, dose: 62.5 mg/kg/injection, schedule: Q01DX001 (ip), vehicle: water) 87 % of control; (endpoint: median tumor weight change, dose: 125.0 mg/kg/injection, schedule: Q01DX001 (ip), vehicle: water) 29 % of control.

As for `NC(CCC(=O)NC(CS)C(=O)NCC(=O)O)C(=O)O` (centres undefined), the T/C is, setting by setting: under setting [10], 74 % of control; (endpoint: median tumor weight change, dose: 500.0 mg/kg/injection, schedule: Q01DX001 (ip), vehicle: saline) 82 % of control.

With `Cc1ccc2c(ccc(CC(=S)[S-])[n+]2C)c1`, the T/C is, setting by setting: under setting [9], 72 % of control and 97 % of control; under setting [4], 90 % of control; under setting [5], 102 % of control and 121 % of control; under setting [6], 46 % of control and 71 % of control; under setting [7], 32 % of control.

In the case of `CC(C)=CCNc1ncnc2c1ncn2C1OC(CO)C(O)C1O` (centres undefined), the T/C was 78 % of control under setting [11]; 84 % of control under setting [12]; 113 % of control under setting [13]; 85 % of control under setting [14]; 82 % of control (endpoint: median tumor weight (est.), dose: 200.0 mg/kg/injection, schedule: Q07DX005 (ip), vehicle: saline with Tween-80).

Turning to `CC1(O)CC23CC(O)C4(O)C(CC(O)C4(C)C)C(C)(O)C2CCC1C3O` (centres undefined), the T/C is, setting by setting: (endpoint: median tumor weight change, dose: 0.25 mg/kg/injection, schedule: Q01DX001 (ip), vehicle: Klucel (hydroxypropylcellulose) (HPC)) 39 % of control; (endpoint: median tumor weight change, dose: 0.5 mg/kg/injection, schedule: Q01DX001 (ip), vehicle: Klucel (hydroxypropylcellulose) (HPC)) 73 % of control.

In the case of `O=C1SC(c2ccccc2)=S=C1c1ccccc1`, the T/C by setting is: (endpoint: median tumor weight change, dose: 125.0 mg/kg/injection, schedule: Q01DX001 (ip), vehicle: saline with Tween-80) 67 % of control; under setting [1], 100 % of control; under setting [2], 60 % of control; under setting [3], 56 % of control.

Regarding `CCN1C=C/C(=C\C=C/c2cc[n+](CC)c3ccccc23)c2ccccc21`, the T/C is 123 % of control (endpoint: median tumor weight (est.), dose: 0.06 mg/kg/injection, schedule: Q07DX005 (ip), vehicle: saline); 104 % of control (endpoint: median tumor weight (est.), dose: 0.06 mg/kg/injection, schedule: Q07DX005 (ip), vehicle: suspension in saline); 88 % of control (endpoint: median tumor weight (est.), dose: 0.12 mg/kg/injection, schedule: Q07DX005 (ip), vehicle: saline); 83 % of control (endpoint: median tumor weight (est.), dose: 0.12 mg/kg/injection, schedule: Q07DX005 (ip), vehicle: suspension in saline); 150 % of control (endpoint: median tumor weight (est.), dose: 0.25 mg/kg/injection, schedule: Q07DX005 (ip), vehicle: saline); 119 % of control (endpoint: median tumor weight (est.), dose: 0.25 mg/kg/injection, schedule: Q07DX005 (ip), vehicle: suspension in saline). The T/C is, setting by setting: (endpoint: median tumor weight (est.), dose: 0.5 mg/kg/injection, schedule: Q07DX005 (ip), vehicle: saline) 109 % of control; under setting [15], 101 % of control; (endpoint: median tumor weight (est.), dose: 1.0 mg/kg/injection, schedule: Q07DX005 (ip), vehicle: suspension in saline) 75 % of control.

Regarding `CN(C)CCC(=O)C(=Cc1ccc(O)cc1)C(=O)CCN(C)C`, the T/C is, setting by setting: (endpoint: median tumor weight change, dose: 50.0 mg/kg/injection, schedule: Q01DX001 (ip), vehicle: suspension in saline) 96 % of control; (endpoint: median tumor weight change, dose: 62.5 mg/kg/injection, schedule: Q01DX001 (ip), vehicle: saline) 90 % of control; (endpoint: median tumor weight change, dose: 100.0 mg/kg/injection, schedule: Q01DX001 (ip), vehicle: suspension in saline) 87 % of control; under setting [10], 62 % of control.

Take `Nc1nc(N)c2c(Cl)c(CNc3ccc(Cl)c(Cl)c3)ccc2n1`: the T/C is 55 % of control (endpoint: median tumor weight (est.), dose: 6.25 mg/kg/injection, schedule: Q07DX005 (ip), vehicle: saline with Tween-80); 78 % of control under setting [11]; 82 % of control under setting [12]; 8 % of control under setting [13]; 27 % of control under setting [14].

On to `CCOC(OCC)C(=O)OCC(=O)[C@]1(O)Cc2c(O)c3c(c(O)c2[C@@H](OC2CC(N)C(O)C(C)O2)C1)C(=O)c1c(OC)cccc1C3=O` (some centres undefined), for which the T/C was 166 % of control (endpoint: median tumor weight (est.), dose: 0.5 mg/kg/injection, schedule: Q07DX005 (ip), vehicle: water); 85 % of control under setting [15]; 50 % of control (endpoint: median tumor weight (est.), dose: 1.0 mg/kg/injection, schedule: Q07DX005 (ip), vehicle: water); 47 % of control (endpoint: median tumor weight (est.), dose: 2.0 mg/kg/injection, schedule: Q07DX005 (ip), vehicle: saline); 74 % of control (endpoint: median tumor weight (est.), dose: 2.0 mg/kg/injection, schedule: Q07DX005 (ip), vehicle: water); 20 % of control (endpoint: median tumor weight (est.), dose: 4.0 mg/kg/injection, schedule: Q07DX005 (ip), vehicle: saline). The T/C (endpoint: median tumor weight (est.), dose: 4.0 mg/kg/injection, schedule: Q07DX005 (ip), vehicle: water) is 24 % of control.

For the compound `Nc1nc(F)nc2c1ncn2C1OC(COP(=O)(O)O)C(O)C1O` (centres undefined), the T/C was 69 % of control (endpoint: median tumor weight (est.), dose: 12.5 mg/kg/injection, schedule: Q07DX005 (ip), vehicle: suspension in saline); 49 % of control under setting [4]; 84 % of control (endpoint: median tumor weight (est.), dose: 25.0 mg/kg/injection, schedule: Q07DX005 (ip), vehicle: saline); 101 % of control (endpoint: median tumor weight (est.), dose: 25.0 mg/kg/injection, schedule: Q07DX005 (ip), vehicle: suspension in saline); 77 % of control under setting [5]; 76 % of control (endpoint: median tumor weight (est.), dose: 50.0 mg/kg/injection, schedule: Q07DX005 (ip), vehicle: suspension in saline). In addition, the T/C was 101 % of control under setting [6]; 75 % of control and 98 % of control (endpoint: median tumor weight (est.), dose: 100.0 mg/kg/injection, schedule: Q07DX005 (ip), vehicle: saline); 66 % of control (endpoint: median tumor weight (est.), dose: 100.0 mg/kg/injection, schedule: Q07DX005 (ip), vehicle: suspension in saline); 50 % of control under setting [7]; 50 % of control (endpoint: median tumor weight (est.), dose: 200.0 mg/kg/injection, schedule: Q07DX005 (ip), vehicle: suspension in saline); 34 % of control under setting [8]. Besides, the T/C (endpoint: median tumor weight (est.), dose: 400.0 mg/kg/injection, schedule: Q07DX005 (ip), vehicle: saline) was 20 % of control.

In the case of `O=C(O)C1(NO)CCCCC1`, the T/C runs as follows: (endpoint: median tumor weight change, dose: 125.0 mg/kg/injection, schedule: Q01DX001 (ip), vehicle: Klucel (hydroxypropylcellulose) (HPC)) 76 % of control; (endpoint: median tumor weight change, dose: 250.0 mg/kg/injection, schedule: Q01DX001 (ip), vehicle: Klucel (hydroxypropylcellulose) (HPC)) 64 % of control; (endpoint: median tumor weight change, dose: 500.0 mg/kg/injection, schedule: Q01DX001 (ip), vehicle: Klucel (hydroxypropylcellulose) (HPC)) 61 % of control; (endpoint: median tumor weight change, dose: 1000.0 mg/kg/injection, schedule: Q01DX001 (ip), vehicle: Klucel (hydroxypropylcellulose) (HPC)) 76 % of control; (endpoint: median tumor weight change, dose: 2000.0 mg/kg/injection, schedule: Q01DX001 (ip), vehicle: Klucel (hydroxypropylcellulose) (HPC)) 124 % of control.
